Laboratory results reported in BindingDB's records for patent US11648254 (Kumquat Biosciences, 2023).

Target: T1, Son of sevenless homolog 1 (Homo sapiens, UniProt Q07889)
T1 sequence (Q07889 whole entry): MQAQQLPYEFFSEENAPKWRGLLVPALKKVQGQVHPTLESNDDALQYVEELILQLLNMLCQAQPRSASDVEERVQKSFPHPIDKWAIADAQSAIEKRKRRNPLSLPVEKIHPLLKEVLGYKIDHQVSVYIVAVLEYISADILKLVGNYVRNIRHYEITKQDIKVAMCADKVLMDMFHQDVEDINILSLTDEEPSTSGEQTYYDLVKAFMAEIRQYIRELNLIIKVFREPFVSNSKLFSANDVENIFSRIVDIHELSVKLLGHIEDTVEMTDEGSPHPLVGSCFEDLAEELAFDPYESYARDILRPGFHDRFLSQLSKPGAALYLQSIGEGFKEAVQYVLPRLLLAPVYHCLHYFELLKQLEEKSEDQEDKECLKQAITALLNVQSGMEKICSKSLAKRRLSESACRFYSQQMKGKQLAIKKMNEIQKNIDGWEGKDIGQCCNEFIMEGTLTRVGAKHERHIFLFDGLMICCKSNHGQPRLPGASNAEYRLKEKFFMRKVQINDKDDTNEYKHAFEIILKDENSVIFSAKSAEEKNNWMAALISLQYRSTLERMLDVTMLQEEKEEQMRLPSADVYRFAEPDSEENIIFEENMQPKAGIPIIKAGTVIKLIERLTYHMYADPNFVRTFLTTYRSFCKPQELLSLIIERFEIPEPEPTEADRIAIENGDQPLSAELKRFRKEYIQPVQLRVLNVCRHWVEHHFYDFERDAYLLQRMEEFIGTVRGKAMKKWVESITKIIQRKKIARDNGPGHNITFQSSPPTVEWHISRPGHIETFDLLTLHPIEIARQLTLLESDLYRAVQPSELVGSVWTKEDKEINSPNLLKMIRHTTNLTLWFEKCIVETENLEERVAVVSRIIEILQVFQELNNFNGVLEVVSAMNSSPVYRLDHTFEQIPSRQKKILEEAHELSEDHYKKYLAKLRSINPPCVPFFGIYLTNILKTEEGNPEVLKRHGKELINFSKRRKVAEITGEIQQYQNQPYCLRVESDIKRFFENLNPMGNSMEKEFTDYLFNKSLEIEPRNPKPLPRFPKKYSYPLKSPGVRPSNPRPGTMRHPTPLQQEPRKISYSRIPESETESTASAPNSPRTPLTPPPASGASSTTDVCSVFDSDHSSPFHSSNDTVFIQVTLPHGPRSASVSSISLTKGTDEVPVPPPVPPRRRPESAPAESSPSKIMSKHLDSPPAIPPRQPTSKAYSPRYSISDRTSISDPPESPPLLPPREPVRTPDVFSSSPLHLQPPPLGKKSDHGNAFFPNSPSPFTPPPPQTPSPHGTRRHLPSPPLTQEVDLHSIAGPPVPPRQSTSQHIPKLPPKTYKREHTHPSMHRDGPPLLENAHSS
Experiment: Ras-SOS Interaction Assay
Description: The ability of any compound of the present disclosure to reduce a Ras protein signaling output by, e.g., interfering or disrupting interaction (or binding) between SOS1 and a Ras protein can be assessed in vitro. For example, the equilibrium interaction of human SOS1 (hSOS1) with human wildtype Kras or K-Ras mutant (e.g., hK-Ras G12C mutant, or hK-RasG12C) can be assessed as a proxy or an indication for a subject compound's ability to inhibit SOS. Detection of such interaction is achieved by measuring homogenous time-resolved fluorescence resonance energy transfer (HTRF) from (i) a fluorescence resonance energy transfer (FRET) donor (e.g., antiGST-Europium) that is bound to GST-tagged K-RasG12C to (ii) a FRET acceptor (e.g., anti-6His-XL665) bound to a His-tagged hSOS1. […] A Ras working solution is prepared in assay buffer containing typically 10 nM of the protein construct (e.g., GST-tagged hK-RasG12C) and 2 nM of the FRET donor (e.g., antiGST-Eu(K) from Cisbio, France). A SOS1 working solution is prepared in assay buffer containing typically 10 nM of the protein construct (e.g., His-hSOS1) and 10 nM of the FRET acceptor (e.g., anti-6His-XL665 from Cisbio, France). An inhibitor control solution is prepared in assay buffer containing 10 nM of the FRET acceptor without the SOS1 protein. A fixed reaction mixture with or without test compound is transferred into a 384-well plate. Ras working solution is added to all wells of the test plate. SOS1 working solution is added to all wells except for those that are subsequently filled the inhibitor control solution.

IC50, < 0.1 µM:
COc1nc2nc(C)nc(N[C@H](C)c3cccc(C(F)F)c3F)c2cc1C1CCN(C(=O)NC2COC2)CC1 [US11648254, Compound 116]
COc1nc2nc(C)nc(N[C@H](C)c3cccc(C(F)(F)F)c3C)c2cc1C1CCS(=O)(=O)CC1 [US11648254, Compound 118]
COc1nc2nc(C)nc(N[C@H](C)c3cccc(C(F)F)c3F)c2cc1[C@H]1C[C@@H](NC(=O)C2COC2)C1 [US11648254, Compound 125]
Cc1nc(N[C@H](C)c2cccc(C(F)F)c2F)c2cc(S(=O)(=O)C3CCN(C)CC3)c(Cl)nc2n1 [US11648254, Compound 132]
COc1nc2nc(C)nc(N[C@H](C)c3cccc(C(F)(F)C4CCCO4)c3F)c2cc1C1CCS(=O)(=O)CC1 (some centres not stated) [US11648254, Compound 148]
COc1nc2nc(C)nc(N[C@H](C)c3cccc(C(C)(F)F)c3F)c2cc1C1CCS(=O)(=O)CC1 [US11648254, Compound 150]
COCCOc1nc2nc(C)nc(N[C@H](C)c3cccc(C(F)F)c3F)c2cc1C1(C#N)CC1 [US11648254, Compound 151]
COc1nc2nc(C)nc(N[C@H](C)c3cccc(C(F)(F)C4CN(C)C4)c3)c2cc1N1CCS(=O)(=O)CC1 [US11648254, Compound 272]
Cc1nc(N[C@H](C)c2cccc(C(F)F)c2F)c2cc(C3(C#N)CC3)c(O[C@H]3CCOC3)nc2n1 [US11648254, Compound 297]
COc1nc2ncnc(N[C@H](C)c3cccc(C(F)(F)F)c3C)c2cc1C1CCS(=O)(=O)CC1 [US11648254, Compound 373]
COc1nc2ncnc(N[C@H](C)c3cccc(C(F)(F)F)c3C)c2cc1C1CCN(C2CCOCC2)CC1 [US11648254, Compound 374]
COc1nc2nc(C)nc(N[C@H](C)c3cccc(C(F)(F)C4CCN(C(C)C)CC4)c3F)c2cc1C1(C#N)CC1 [US11648254, Compound 377]
